Measured values as given in a melting point compilation (Tetko et al.).

| Structure (SMILES) | melting point |
| --- | --- |
| OCc1ccccn1 | 5 °C |
| ClCCCCCCCCCCCl | 15.6 °C |
| Brc1c(Br)c(Br)c(-c2c(Br)c(Br)c(Br)c(Br)c2Br)c(Br)c1Br | 375 °C |
| CCP(=O)(CC)CC | 52 to 53 °C |
| CC1CN1 (configuration not stated) | -65 °C |
| O=C(C=CC(=O)OCC(F)(F)C(F)(F)C(F)(F)C(F)(F)C(F)(F)C(F)(F)C(F)(F)F)OCC(F)(F)C(F)(F)C(F)(F)C(F)(F)C(F)(F)C(F)(F)C(F)(F)F | 82 to 84 °C |
| CC(=O)C1CCC2C3CCC4CC(O)CCC4(C)C3CCC12C (configuration not stated) | 194 °C |
| C=C(Br)CC1(C(C)CC)C(=O)NC(=O)NC1=O (configuration not stated) | 132 °C |
| C1CCCCCC1 | -8 °C |
| Clc1ccc2c(c1)Oc1cc(Cl)c(Cl)c(Cl)c1O2 | 172 °C |
| Cc1cc(C(=O)O)n(C(C)(C)C)n1 | 149 to 153 °C |
| Nc1ncncn1 | 219 to 224 °C |
| CCO[Si](Cl)(Cl)OCC | -130 °C |
| NCCCCCCCCN | 52 °C |
| CC(=O)OC1CCC2(C)C3CCC4=C(CCC4(C)C#CCl)C3CCC2(C)C1 (configuration not stated) | 109 to 110 °C |
| Cc1ccccc1CP(=O)(O)O | 195 to 196 °C |
| O=C1CCCCCCCCC1O (configuration not stated) | 42 °C |
| Cc1cc(Cl)nnc1Cl | 87 °C |
| CC(F)(F)CCl | -56.2 °C |
| O=C1CN=C(c2ccccc2)c2cc(Cl)ccc2N1CC(F)(F)F | 164 °C |
| C#CC1(O)CCC2(C)C(CCC3C2CCC2(C)C3CCC2(C)O)C1 (configuration not stated) | 190 °C |
| BrCc1cccc2nonc12 | 77 to 79 °C |
| CC1(C)OC(=O)C1(C)C | 132 °C |
| CC(C)(C)OC(=O)NCCNc1ccc(C(F)(F)F)cc1N | 129 to 132 °C |
| Cc1ncc(S(=O)(=O)C(C)(C)C)c(N)n1 | 163 to 166 °C |
| CC(=O)OCC(=O)C1(O)C(C)CC2C3CCC4=CC(=O)C=CC4(C)C3(F)C(O)CC21C (configuration not stated) | 263 °C |

| Structure (SMILES) | melting point |
| --- | --- |
| O=C(CBr)Nc1ccccc1Cl | 89 to 91 °C |
| CCCCN(CCN(CCCC)C(=O)N1CCOCC1)C(=O)N1CCOCC1 | 41.5 °C |
| ClC(C(Cl)(Cl)Cl)C(Cl)(Cl)Cl | 11 °C |
| O=C(Cl)c1ccccc1I | 30 to 32 °C |
| Cc1noc(C)c1CO | 76 to 77 °C |
| Cc1ccc(C(N)C(N)c2ccc(C)cc2)cc1 (configuration not stated) | 113 to 117 °C |
| Cc1cc2nsnc2cc1Cl | 85 to 86 °C |
| CC(C)C1CCC2(C)CC(O)C3(C)CCC12O3 (configuration not stated) | 114 °C |
| N#Cc1scc2c1OCCO2 | 70 °C |
| CC(C)OP(=O)(CCP(=O)(OC(C)C)OC(C)C)OC(C)C | 35.5 °C |
| ClCc1csc2ccc(Br)cc12 | 106 to 108 °C |
| Cn1sc(Cl)cc1=O | 52 °C |
| Sc1nc2cccnc2s1 | 300 °C |
| C=C1CCC(O)CC1=CC=C1CCCC2(C)C1CCC2C(C)C=CC(C)C(C)C (configuration not stated) | 116 °C |
| COC(=O)CCC(C)C1CCC2C3C=CC4CC(OC(C)=O)CCC4(C)C3CC(OC(C)=O)C12C (configuration not stated) | 86.5 to 87.5 °C |
| NC(=S)C(N)=S | 170 °C |
| C[Si](C)(C)NC(=O)N[Si](C)(C)C | 232 °C |
| Oc1ccc2c(c1)C13CCCCC1C(C2)NCC3 (configuration not stated) | 271 °C |
| Cc1ccc(NC(=O)C(C(F)(F)F)C(F)(F)F)cc1C | 189 °C |
| CC1C(=O)C23C(O)CC4C(C)(C)CCCC45COC(CC1C2O)C53 (configuration not stated) | 218 to 221 °C |
| COCCOCCOCCOC | -45 °C |
| O=C(O)C(O)c1cc(F)cc(F)c1 (configuration not stated) | 136 °C |
| CC(=O)Cc1c[nH]c2ccccc12 | 116 °C |
| CCCCCCCCSCCCCCCCC | 0.5 °C |
| Fc1c(F)c(F)c(Br)c(Br)c1F | 12 °C |
| NC(CCC(=O)O)C(=O)O (configuration not stated) | 205 °C |

Next, values leading:

| melting point | Structure (SMILES) |
| --- | --- |
| 146 to 151 °C | CC(C)(C)OC(=O)C=P(c1ccccc1)(c1ccccc1)c1ccccc1 |
| 178 to 180 °C | O=C(O)C1CN(C(c2ccccc2)c2ccccc2)C1 |
| 166 to 167 °C | Cc1nc(-c2cc(C(=O)O)no2)cs1 |
| 128 °C | C/C(CCc1ccc2c(c1)NC(C)CC2)=N\NC(N)=O (configuration not stated) |
| 151 to 158 °C | O=C(c1ccccn1)C(O)c1ccccn1 (configuration not stated) |
| 233 °C | O=C1c2[nH]c3ccc(Br)cc3c2CCN1Cc1ccc(Cl)cc1 |
| 255 °C | O=C1OCCN1N=Cc1ccc([N+](=O)[O-])o1 |
| 108 to 110 °C | Cc1ccc(N/N=C(/C(=O)c2cccc3ccccc23)S(=O)(=O)c2ccccc2)cc1 |
| 136 to 138 °C | COc1ccc(CC(N)=S)cc1OC |
| 82 to 84 °C | COc1cc(CCC(C)=NO)ccc1O |
| 166 to 172 °C | COC(=O)C1=C(C)NC(C)=C([N+](=O)[O-])C1c1ccccc1C(F)(F)F (configuration not stated) |
| 56 °C | Cc1ccc([Si](C)(C)c2ccccc2CO)cc1 |
| 104 °C | N#CC(C(N)=O)=C(SCc1ccccc1)SCc1ccccc1 |
| 94 to 96 °C | COC(=O)C(CCSC)NC(=O)c1ccc(C(F)(F)F)cc1 (configuration not stated) |
| 118 to 121 °C | C[C@H]1NC(=O)O[C@H]1c1ccccc1 |
| 289 °C | O=C(O)C=Cc1ccc([N+](=O)[O-])cc1 |
| 77 °C | Clc1ccc(C(c2ccccc2Cl)C(Cl)Cl)cc1 (configuration not stated) |
| 102 °C | CN1c2ccccc2Sc2ccccc21 |
| 166 to 172 °C | O=C(O)c1cc([N+](=O)[O-])ccc1N1CCOCC1 |
| 90 to 94 °C | CCOC(=O)c1c(N)sc2c1CCC2 |
| 116 to 119 °C | COc1cccc(C=CC(=O)O)c1 |
| 81.5 °C | Cc1ccc2ccccc2c1[N+](=O)[O-] |
| 2 to 3 °C | OCCc1ccccc1C(F)(F)F |
| 116 °C | O=C(O)Cc1ccccc1I |
| 115 to 117 °C | O=C(Nc1cccnc1Cl)c1ccccc1Cl |

| melting point | Structure (SMILES) |
| --- | --- |
| 101 °C | COC(=O)c1ccc(Br)cn1 |
| 202 °C | O=C(CCCN1CCC(n2c(=S)[nH]c3ccccc32)CC1)c1ccc(F)cc1 |
| 134 °C | O=C1C(c2ccccc2)C(c2ccccc2)N1c1ccccc1 (configuration not stated) |
| 176 °C | CC12CCC(/C(=C\Nc3ccccc3C(=O)O)C1=O)C2(C)C (configuration not stated) |
| 310 °C | Oc1cc(O)cc(-c2cc(O)cc(O)c2)c1 |
| 36 to 40 °C | Cc1cc(Cl)ncc1[N+](=O)[O-] |
| 52 to 54 °C | Cc1ccc(I)c([N+](=O)[O-])c1 |
| 188 °C | COc1cccc(C(=O)N(NC(=O)c2ccccc2)C(C)(C)C)c1 |
| 135 °C | NC(=O)c1c(F)ccc(Cl)c1F |
| 210 °C | O=S1(=O)Cc2ncc3ccccc3c2C1 |
| 112 °C | Cc1nn(C)c(OCC(=O)c2ccccc2)c1C(=O)c1ccc(Cl)cc1Cl |
| 206 °C | Cc1ccc(-c2nnc(-c3ccccc3)c3c(C)onc23)cc1 |
| 133 °C | Cc1nc2cc([N+](=O)[O-])ccc2s1 |
| 124 °C | CC(C)(C)c1nn(-c2ccccc2)c(N)c1Cn1nnc2ccccc21 |
| 196 to 204 °C | CC(C)(C)OC(=O)N1CCN(Cc2ccc(C(=O)O)cc2)CC1 |
| 146 °C | O=C(N[C@H](Cc1cccc(Br)c1)C(=O)O)OCC1c2ccccc2-c2ccccc21 |
| 109 to 110 °C | O=Cc1c(-c2ccccc2)nn(-c2ccccc2)c1Cl |
| 83 to 87 °C | CC(C)(C)OC(=O)N1CCN(c2ccc(CN)cc2)CC1 |
| 173 °C | CC(=O)Nc1ccc(CC(=O)O)cc1 |
| 115 °C | COc1ccc(-c2csc(/C(C#N)=C\c3ccco3)n2)cc1 |
| 202 to 204 °C | O=C(O)c1cccc2cc[nH]c12 |
| 104 to 106 °C | O=C(CCl)Nc1cccc(Cl)c1Cl |
| 114 °C | O=C(Cc1ccccc1)c1ccc2c3c(cccc13)CC2 |
| 129 to 205 °C | CCCOC(=O)c1ccc(OC(=O)c2ccc(C(=O)Oc3ccc(C(=O)OCCC)cc3)cc2)cc1 |
| 136 °C | c1ccc(-c2ccc3c4c(c5c(c3c2)CCCC5)CCCC4)cc1 |

| melting point | Structure (SMILES) |
| --- | --- |
| 188 to 192 °C | O=C(O)c1ccc(-c2ccccc2)s1 |
| 101 to 103 °C | O=C(Cl)c1ccc(-c2ccco2)cc1 |
| 168 °C | N#CC1(C#N)C2O[C@H](c3ccccc3)[C@@H](C3=C2CCCC3)C1(C#N)C#N |
| 198 to 200 °C | O=C(O)c1ccccc1-n1ccnc1 |
| 112 °C | CCOC(=O)CCCOc1ccccc1NC(=O)c1ccc2c(c1)CC1(CCC(c3ccc(C(C)(C)C)cc3)CC1)C2 (configuration not stated) |
| 56 to 58 °C | O=[N+]([O-])c1ccc(OCCCBr)cc1 |
| 126 °C | Cn1nc(C(=O)Cl)c2ccccc21 |
| 156 °C | NC(=O)c1cc(F)cc(F)c1 |
| 204 to 208 °C | O=C(N[C@@H]1CCCC[C@@H]1C(=O)O)c1ccccc1 |
| 98 to 99 °C | CC(C)(C)OC(=O)NCc1ccc(CO)cc1 |
| 53 °C | CC1CCC(C(C)C)C(OC(=O)C(c2ccccc2)c2ccccc2)C1 (configuration not stated) |
| 49 °C | COC(=O)c1ccc(C)c(OC)c1 |
| 264 °C | CC(=O)NC1C(Oc2ccc([N+](=O)[O-])cc2)OC(CO)C(O)C1O (configuration not stated) |
| 266 to 268 °C | O=C(O)c1ccc2[nH]c3c(c2c1)CCCC3 |
| 218 °C | CC(=O)Oc1cccc2c1C(=O)c1c(OC(C)=O)cc(C(=O)O)cc1C2=O |
| 75 °C | c1ccn2cccc2c1 |
| 204 °C | CC(=O)C=P(c1ccccc1)(c1ccccc1)c1ccccc1 |
| 174 °C | NNC(=O)c1ccc2c(c1)OCO2 |
| 129 to 130 °C | O=Cc1cc2cc(Br)ccc2o1 |
| 246 °C | CCCN(CCC)CCc1cccc2c1CC(=O)N2 |
| 141 °C | N#Cc1ccc(-c2cc[nH]n2)cc1 |
| 310 °C | O=C1N=NC(=O)c2cc3c(cc21)CCC3 |
| 189 °C | COc1ccc(C(=O)NNC(=O)c2cccc3ccccc23)cc1 |
| 27 °C | Nc1ccc(N2CCCCC2)cc1 |
| 106 to 107 °C | O=C(Cl)c1cc2cc(Br)ccc2o1 |
